Data reported in PubChem BioAssay (NCI).
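A five-concentration, 48-hour dose response in 96-well plates underlies each endpoint, interpolated linearly between surrounding concentrations. The concentration for 50% growth inhibition is given as GI50. TGI: total growth inhibition.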

What was measured:
Test in all cases: NCI anticancer screen, dose series, 48 h
SK-MEL-2 melanoma = test system: SK-MEL-2 melanoma
LOX IMVI melanoma = test system: LOX IMVI melanoma
OVCAR-8 ovarian = test system: OVCAR-8 ovarian
SK-OV-3 ovarian = test system: SK-OV-3 ovarian
A498 renal = test system: A498 renal
CAKI-1 renal = test system: CAKI-1 renal
RXF 393 renal = test system: RXF 393 renal
SN12C renal = test system: SN12C renal
HCC-2998 colon = test system: HCC-2998 colon
HL-60(TB) leukemia = test system: HL-60(TB) leukemia
SK-MEL-5 melanoma = test system: SK-MEL-5 melanoma
M14 melanoma = test system: M14 melanoma
MDA-MB-231 breast = test system: MDA-MB-231 breast
OVCAR-3 ovarian = test system: OVCAR-3 ovarian
UACC-257 melanoma = test system: UACC-257 melanoma
HOP-92 NSCLC = test system: HOP-92 NSCLC
BT-549 breast = test system: BT-549 breast
MOLT-4 leukemia = test system: MOLT-4 leukemia
SNB-19 CNS = test system: SNB-19 CNS
NCI-H23 lung = test system: NCI-H23 lung
786-0 renal = test system: 786-0 renal
MCF7 breast = test system: MCF7 breast
HT29 colon = test system: HT29 colon
TK-10 renal = test system: TK-10 renal
RPMI-8226 leukemia = test system: RPMI-8226 leukemia
MALME-3M melanoma = test system: MALME-3M melanoma
T-47D breast = test system: T-47D breast
UO-31 renal = test system: UO-31 renal
OVCAR-5 ovarian = test system: OVCAR-5 ovarian
CCRF-CEM leukemia = test system: CCRF-CEM leukemia
SW-620 colon = test system: SW-620 colon
OVCAR-4 ovarian = test system: OVCAR-4 ovarian
SF-539 CNS = test system: SF-539 CNS
HCT-116 colon = test system: HCT-116 colon
SR leukemia = test system: SR leukemia
EKVX NSCLC = test system: EKVX NSCLC
MDA-MB-435 = test system: MDA-MB-435
KM12 colon = test system: KM12 colon
NCI-H522 lung = test system: NCI-H522 lung
SF-295 CNS = test system: SF-295 CNS
HCT-15 colon = test system: HCT-15 colon
SK-MEL-28 melanoma = test system: SK-MEL-28 melanoma
U251 CNS = test system: U251 CNS
COLO 205 colon = test system: COLO 205 colon
A549 NSCLC = test system: A549 NSCLC
SNB-75 CNS = test system: SNB-75 CNS
PC-3 prostate = test system: PC-3 prostate
NCI-H226 lung = test system: NCI-H226 lung
IGROV1 ovarian = test system: IGROV1 ovarian
HOP-62 NSCLC = test system: HOP-62 NSCLC
UACC-62 melanoma = test system: UACC-62 melanoma
NCI-H460 lung = test system: NCI-H460 lung
ACHN renal = test system: ACHN renal
HS 578T breast = test system: HS 578T breast
NCI/ADR-RES ovarian = test system: NCI/ADR-RES ovarian
SF-268 CNS = test system: SF-268 CNS
DU-145 prostate = test system: DU-145 prostate
K-562 leukemia = test system: K-562 leukemia

Question: Which GI50 (SK-MEL-2 melanoma) does the source give for COC(=O)c1c(C)c2n(c1C)C(=O)C(c1ccccc1)=C2 here?
Answer: > 100 µM

Question: And the TGI (SK-MEL-2 melanoma)?
Answer: > 100 µM

Question: And the GI50 (LOX IMVI melanoma)?
Answer: 58.8 µM

Question: And the TGI (LOX IMVI melanoma)?
Answer: > 100 µM

Question: And the GI50 (OVCAR-8 ovarian)?
Answer: > 90.9 µM

Question: And the TGI (OVCAR-8 ovarian)?
Answer: > 100 µM

Question: And the GI50 (SK-OV-3 ovarian)?
Answer: > 73.9 µM

Question: What about the TGI (SK-OV-3 ovarian) of the same compound?
Answer: > 100 µM

Question: What about the GI50 (A498 renal) of the same compound?
Answer: > 84.7 µM

Question: And the TGI (A498 renal)?
Answer: > 100 µM

Question: What about the GI50 (CAKI-1 renal) of the same compound?
Answer: > 47.9 µM

Question: And the TGI (CAKI-1 renal)?
Answer: > 100 µM

Question: And the GI50 (RXF 393 renal)?
Answer: 55 µM

Question: And the TGI (RXF 393 renal)?
Answer: > 100 µM

Question: And the GI50 (SN12C renal)?
Answer: > 100 µM

Question: What about the TGI (SN12C renal) of the same compound?
Answer: > 100 µM

Question: What about the GI50 (HCC-2998 colon) of the same compound?
Answer: > 57.8 µM

Question: And the TGI (HCC-2998 colon)?
Answer: > 100 µM

Question: What about the GI50 (HL-60(TB) leukemia) of the same compound?
Answer: 53.8 µM

Question: And the TGI (HL-60(TB) leukemia)?
Answer: > 100 µM

Question: What about the GI50 (SK-MEL-5 melanoma) of the same compound?
Answer: 26.9 µM

Question: What about the TGI (SK-MEL-5 melanoma) of the same compound?
Answer: > 100 µM

Question: And the GI50 (M14 melanoma)?
Answer: > 71 µM

Question: And the TGI (M14 melanoma)?
Answer: > 100 µM

Question: And the GI50 (MDA-MB-231 breast)?
Answer: 24.3 µM

Question: What about the TGI (MDA-MB-231 breast) of the same compound?
Answer: > 100 µM

Question: What about the GI50 (OVCAR-3 ovarian) of the same compound?
Answer: 45.4 µM

Question: What about the TGI (OVCAR-3 ovarian) of the same compound?
Answer: > 100 µM

Question: What about the GI50 (UACC-257 melanoma) of the same compound?
Answer: > 100 µM

Question: What about the TGI (UACC-257 melanoma) of the same compound?
Answer: > 100 µM

Question: And the GI50 (HOP-92 NSCLC)?
Answer: > 47.1 µM

Question: What about the TGI (HOP-92 NSCLC) of the same compound?
Answer: > 100 µM

Question: And the GI50 (BT-549 breast)?
Answer: 61.6 µM

Question: And the TGI (BT-549 breast)?
Answer: > 100 µM

Question: What about the GI50 (MOLT-4 leukemia) of the same compound?
Answer: 30.8 µM

Question: What about the TGI (MOLT-4 leukemia) of the same compound?
Answer: > 100 µM

Question: What about the GI50 (SNB-19 CNS) of the same compound?
Answer: > 95.6 µM

Question: What about the TGI (SNB-19 CNS) of the same compound?
Answer: > 100 µM

Question: What about the GI50 (NCI-H23 lung) of the same compound?
Answer: > 58.3 µM

Question: And the TGI (NCI-H23 lung)?
Answer: > 100 µM

Question: And the GI50 (786-0 renal)?
Answer: 88.1 µM

Question: What about the TGI (786-0 renal) of the same compound?
Answer: > 100 µM

Question: What about the GI50 (MCF7 breast) of the same compound?
Answer: 5.32 µM

Question: What about the TGI (MCF7 breast) of the same compound?
Answer: > 100 µM

Question: And the GI50 (HT29 colon)?
Answer: 41.1 µM

Question: And the TGI (HT29 colon)?
Answer: > 100 µM

Question: What about the GI50 (TK-10 renal) of the same compound?
Answer: 48.2 µM

Question: What about the TGI (TK-10 renal) of the same compound?
Answer: > 100 µM

Question: And the GI50 (RPMI-8226 leukemia)?
Answer: 25.9 µM

Question: What about the TGI (RPMI-8226 leukemia) of the same compound?
Answer: > 100 µM

Question: What about the GI50 (MALME-3M melanoma) of the same compound?
Answer: > 100 µM

Question: And the TGI (MALME-3M melanoma)?
Answer: > 100 µM

Question: What about the GI50 (T-47D breast) of the same compound?
Answer: 9.38 µM

Question: And the TGI (T-47D breast)?
Answer: > 100 µM

Question: And the GI50 (UO-31 renal)?
Answer: 31.7 µM

Question: What about the TGI (UO-31 renal) of the same compound?
Answer: > 100 µM

Question: What about the GI50 (OVCAR-5 ovarian) of the same compound?
Answer: > 91.9 µM

Question: And the TGI (OVCAR-5 ovarian)?
Answer: > 100 µM

Question: And the GI50 (CCRF-CEM leukemia)?
Answer: 51.8 µM

Question: What about the TGI (CCRF-CEM leukemia) of the same compound?
Answer: > 100 µM

Question: What about the GI50 (SW-620 colon) of the same compound?
Answer: 48.6 µM

Question: What about the TGI (SW-620 colon) of the same compound?
Answer: > 100 µM

Question: And the GI50 (OVCAR-4 ovarian)?
Answer: 50.4 µM

Question: And the TGI (OVCAR-4 ovarian)?
Answer: > 100 µM

Question: What about the GI50 (SF-539 CNS) of the same compound?
Answer: > 88.8 µM

Question: And the TGI (SF-539 CNS)?
Answer: > 100 µM

Question: What about the GI50 (HCT-116 colon) of the same compound?
Answer: 42.5 µM

Question: What about the TGI (HCT-116 colon) of the same compound?
Answer: > 100 µM

Question: What about the GI50 (SR leukemia) of the same compound?
Answer: > 50.1 µM

Question: And the TGI (SR leukemia)?
Answer: > 100 µM

Question: What about the GI50 (EKVX NSCLC) of the same compound?
Answer: 5.91 µM

Question: What about the TGI (EKVX NSCLC) of the same compound?
Answer: > 100 µM

Question: And the GI50 (MDA-MB-435)?
Answer: 25.1 µM

Question: What about the TGI (MDA-MB-435) of the same compound?
Answer: > 100 µM

Question: And the GI50 (KM12 colon)?
Answer: 49.7 µM

Question: And the TGI (KM12 colon)?
Answer: > 100 µM

Question: And the GI50 (NCI-H522 lung)?
Answer: 58.2 µM

Question: What about the TGI (NCI-H522 lung) of the same compound?
Answer: > 100 µM

Question: What about the GI50 (SF-295 CNS) of the same compound?
Answer: > 61.9 µM

Question: And the TGI (SF-295 CNS)?
Answer: > 100 µM

Question: And the GI50 (HCT-15 colon)?
Answer: 28.9 µM

Question: And the TGI (HCT-15 colon)?
Answer: > 100 µM

Question: What about the GI50 (SK-MEL-28 melanoma) of the same compound?
Answer: > 87.8 µM

Question: And the TGI (SK-MEL-28 melanoma)?
Answer: > 100 µM

Question: And the GI50 (U251 CNS)?
Answer: 82.8 µM

Question: And the TGI (U251 CNS)?
Answer: > 100 µM

Question: What about the GI50 (COLO 205 colon) of the same compound?
Answer: > 93 µM

Question: What about the TGI (COLO 205 colon) of the same compound?
Answer: > 100 µM

Question: And the GI50 (A549 NSCLC)?
Answer: > 81.2 µM

Question: And the TGI (A549 NSCLC)?
Answer: > 100 µM

Question: And the GI50 (SNB-75 CNS)?
Answer: 30.1 µM

Question: What about the TGI (SNB-75 CNS) of the same compound?
Answer: > 100 µM

Question: And the GI50 (PC-3 prostate)?
Answer: > 80.6 µM

Question: What about the TGI (PC-3 prostate) of the same compound?
Answer: > 100 µM

Question: What about the GI50 (NCI-H226 lung) of the same compound?
Answer: > 100 µM

Question: And the TGI (NCI-H226 lung)?
Answer: > 100 µM

Question: What about the GI50 (IGROV1 ovarian) of the same compound?
Answer: 34.4 µM

Question: And the TGI (IGROV1 ovarian)?
Answer: > 100 µM

Question: And the GI50 (HOP-62 NSCLC)?
Answer: 67.1 µM

Question: And the TGI (HOP-62 NSCLC)?
Answer: > 100 µM

Question: What about the GI50 (UACC-62 melanoma) of the same compound?
Answer: 28.1 µM

Question: What about the TGI (UACC-62 melanoma) of the same compound?
Answer: > 100 µM

Question: What about the GI50 (NCI-H460 lung) of the same compound?
Answer: 58.2 µM

Question: And the TGI (NCI-H460 lung)?
Answer: > 100 µM

Question: And the GI50 (ACHN renal)?
Answer: > 87.6 µM

Question: What about the TGI (ACHN renal) of the same compound?
Answer: > 100 µM

Question: And the GI50 (HS 578T breast)?
Answer: 8.13 µM

Question: And the TGI (HS 578T breast)?
Answer: > 100 µM

Question: And the GI50 (NCI/ADR-RES ovarian)?
Answer: 53.2 µM

Question: What about the TGI (NCI/ADR-RES ovarian) of the same compound?
Answer: > 100 µM

Question: And the GI50 (SF-268 CNS)?
Answer: > 100 µM

Question: And the TGI (SF-268 CNS)?
Answer: > 100 µM

Question: What about the GI50 (DU-145 prostate) of the same compound?
Answer: > 100 µM

Question: What about the TGI (DU-145 prostate) of the same compound?
Answer: > 100 µM

Question: What about the GI50 (K-562 leukemia) of the same compound?
Answer: 45.3 µM

Question: And the TGI (K-562 leukemia)?
Answer: > 100 µM
